From patent publication US11667961B2, “Intercalating fluorescent dyes for labelling nucleic acids and preparation method thereof” (Bioacts Corporation, priority 2020, dated 2023)
Entries after “also recorded” stand apart in the source; their conditions may differ.

Assays:
[1] = test system: double-stranded DNA (cDNA extracted from HeLa cells, b-actin primer); experiment: Compound analysis through real-time PCR by intercalating method (double-stranded DNA binding dyes); type: biochemical; details: for fluorescence signal / fluorescence intensity during DNA synthesis (FIG. 1): 1 uL of 200 uM dye in 20 uL reaction, fluorescence wavelength of 497 nm detected; for Cq value (FIG. 3): 45 cycles, HeLa cDNA template
Procedure: Compounds 8, 9, 10, 15, 16, and 17 were dissolved in dimethyl sulfoxide to prepare 5 mM of a stock solution. The prepared stock solution was diluted in a Tris-EDTA buffer (pH 7.5) and prepared at a concentration of 200 uM.
For Reference material 1, 10,000× of the stock solution was diluted to a concentration of 20× through a Tris-EDTA buffer (pH 7.5). For Reference material 2, 20,000× of the stock solution was diluted to a concentration of 20× through a Tris-EDTA buffer (pH 7.5).
Reference materials 1 (Evagreen) and 2 (Invitrogen Sybr Green) and Compounds 8, 9, 10, 15, 16, and 17 were compared and verified by an intercalating method using a double-stranded DNA binding dyes through real-time PCR. cDNA extracted from HeLa cells was used, and b-actin (Forward 5′-CATCGAGCACGGCATCGTCA-3′, Reverse 5′-TAGCACAGCCTGGATAGCAAC-3′) was used as a primer. Real-time PCR reaction was performed using a CFX96 touch real-time PCR detection system (BIO-RAD). The PCR mixture consisted of a total 20 uL of reaction solution containing 1 uL of a forward primer, 1 uL of a reverse primer, 10 uL of a PCR master mix (TAKARA), 1 uL of a reference material and each compound (Compounds 8, 9, 10, 15, 16, 17), and 1 uL of template cDNA. PCR conditions were as follows: (a) In a pre-denaturing step, 1 minute at 95° C. (b) 45 cycles are configured as a cycle consisting of at 95° C. for 15 seconds, 58° C. for 30 seconds and 72° C. for 30 seconds, and a fluorescence wavelength of 497 nm was detected in a cycle of 30 seconds at 72° C.

[2] = Stability analysis: storage in incubator at 60° C. for 3 days, then real-time PCR fluorescence; type: physicochemical; details: for change in fluorescence intensity after reaction at 60° C. for 3 days (FIGS. 11-14): stored in incubator at 60° C. for 3 days, real-time PCR for each template concentration
Procedure: Stability analysis was performed by storing Reference materials 1 (Evagreen) and 2 (Invitrogen Sybr Green) and Compound 16 in an incubator at 60° C. The three materials were stored in an incubator at 60° C. for 3 days, and the fluorescence signals for each template concentration were analyzed by real-time PCR analysis as in (1) above, and the PCR product was electrophoresed to analyze whether normal DNA synthesis was achieved. After real-time-PCR, synthetic DNA and a 6× Loading dye (BioActs) were mixed, and then electrophoresis was performed for 35 minutes on a 2% agarose gel (Simga-aldrich).

C=CS(=O)(=O)CCNC(=O)CCCN(C)C1=C/C(=C\c2oc3ccccc3[n+]2C)c2ccccc2N1c1ccccc1 [Compound 8]
fluorescence signal / fluorescence intensity during DNA synthesis (FIG. 1) [1]: not strongly observed
Cq value (FIG. 3) [1]: not much confirmed

CN(C)CCCNC(=O)CCCN(C)C1=C/C(=C\c2oc3ccccc3[n+]2C)c2ccccc2N1c1ccccc1 [Compound 9]
fluorescence signal / fluorescence intensity during DNA synthesis (FIG. 1) [1]: not strongly observed
Cq value (FIG. 3) [1]: not much confirmed

CCCCCCCCNC(=O)CCCN(C)C1=C/C(=C\c2oc3ccccc3[n+]2C)c2ccccc2N1c1ccccc1 [Compound 10]
fluorescence signal / fluorescence intensity during DNA synthesis (FIG. 1) [1]: not strongly observed
Cq value (FIG. 3) [1]: not much confirmed

C=CS(=O)(=O)CCNC(=O)CCCN(C)C1=C/C(=C\c2sc3ccccc3[n+]2C)c2ccccc2N1c1ccccc1 [Compound 15]
fluorescence signal / fluorescence intensity during DNA synthesis (FIG. 1) [1]: emit visible fluorescence; also recorded: not much strong

CN(C)CCCNC(=O)CCCN(C)C1=C/C(=C\c2sc3ccccc3[n+]2C)c2ccccc2N1c1ccccc1 [Compound 16]
stability compared with Reference material 2 ([2]; 60° C. for 3 days): more stable material than Reference material 2
change in fluorescence intensity after reaction at 60° C. for 3 days (FIGS. 11-14) [2]: no significant change
fluorescence signal / fluorescence intensity during DNA synthesis (FIG. 1) [1]: emit visible fluorescence; also recorded: very strong
Cq value (FIG. 3) [1]: fastest
Cq value relative to Reference material 1 (FIG. 6) ([1]; compared with Evagreen): faster than that of Reference material 1
fluorescence intensity relative to Reference materials 1 and 2 (FIG. 4) ([1]; compared with Evagreen and Sybr Green at 20×): two times higher

CCCCCCCCNC(=O)CCCN(C)C1=C/C(=C\c2oc3ccccc3[n+]2C)c2ccccc2N1c1ccccc1 [Compound 17]
fluorescence signal / fluorescence intensity during DNA synthesis (FIG. 1) [1]: emit visible fluorescence; also recorded: not much strong
Cq value (FIG. 3) [1]: hardly confirmed

CCCN(CCCN(C)C)c1cc(/C=C2/Sc3ccccc3N2C)c2ccccc2[n+]1-c1ccccc1 [Reference material 2, reference compound]
change in fluorescence intensity after reaction at 60° C. for 3 days (FIGS. 11-14) [2]: decreased by about half
